Assay results as given in patent US11865129B2, “Application of anemoside B4 in preparation of a drug for treatment or prevention of psoriasis” (GUANGXI XINHAI PHARMACEUTICAL TECHNOLOGY CO., LTD., priority 2021, dated 2024).

Tested on: T lymphocyte subsets of CD4+, CD3+, CD4+/CD8+
Test: T lymphocyte subsets by flow cytometry, psoriasis model rats
Type: in vivo, SD male rats
Conditions: 7 days, vs model control group
Method: 60 SPF-grade SD male rats in the second animal group are divided into 6 groups: a blank control group, a model control group, an anemoside B4 intragastric administration group (5 mg/kg), an anemoside B4 intragastric administration group (10 mg/kg), an anemoside B4 intragastric administration group (20 mg/kg), and an acitretin intragastric administration group (5 mg/kg), and are respectively expressed into the blank control group, the model group, anemoside B4 5 mg/kg, anemoside B4 10 mg/kg, anemoside B4 20 mg/kg, and acitretin 5 mg/kg in FIGS. 3, 4 and 5 for convenience. A shaving area on the back of the rats in each group is 2.5 cm×3 cm, and the vellus is removed with mild depilatory cream. The rats of each group except the blank control group are modeled by administrating 62.5 mg 5% imiquimod cream on the shaving area until the skin is thickened and has erythema and silver scales for modeling completely.
5% imiquimod cream is administrated once a day, and continuously administrated for 8 days for model establishment. On the second day, the rats in each group are continuously intragastric (i.g.) administered drugs for 7 days.
After administration, blood is taken from abdominal aorta of the rats in each group of the second animal group, added erythrocyte lysis buffer, centrifuged to collect T lymphocytes, incubated CD4, CD3 and CD8 antibodies in 4° C., washed with a buffer, centrifuged to collect cells, and is subjected to flow cytometry to measure the ratio of the T lymphocyte subsets.

C=C(C)[C@@H]1CC[C@]2(C(=O)O[C@@H]3O[C@H](CO[C@@H]4O[C@H](CO)[C@@H](O[C@@H]5O[C@@H](C)[C@H](O)[C@@H](O)[C@H]5O)[C@H](O)[C@H]4O)[C@@H](O)[C@H](O)[C@H]3O)CC[C@]3(C)[C@H](CC[C@@H]4[C@@]5(C)CC[C@H](O[C@@H]6OC[C@H](O)[C@H](O)[C@H]6O[C@@H]6O[C@@H](C)[C@H](O)[C@@H](O)[C@H]6O)[C@@](C)(CO)[C@@H]5CC[C@]43C)[C@H]12 [anemoside B4]
significantly increased: ratio of CD3+ in serum (intragastric 5 mg/kg) | ratio of CD4+ in serum (intragastric 5 mg/kg) | ratio of CD4+/CD8+ in serum (intragastric 5 mg/kg) | ratio of CD3+ in serum (intragastric 10 mg/kg) | ratio of CD4+ in serum (intragastric 10 mg/kg) | ratio of CD4+/CD8+ in serum (intragastric 10 mg/kg) | ratio of CD3+ in serum (intragastric 20 mg/kg) | ratio of CD4+ in serum (intragastric 20 mg/kg) | ratio of CD4+/CD8+ in serum (intragastric 20 mg/kg)
